In patent US9936700B2, “Substituted quinoxaline derivatives as pest control agent” (BAYER CROPSCIENCE AKTIENGESELLSCHAFT, priority 2013, dated 2018):
Where two headings read alike, the source gives them in different places.

Assays:
[1] = log P by reversed-phase HPLC (EEC Directive 79/831 Annex V.A8); assay type: physicochemical; conditions: for chromatographic logP: reversed-phase C18 HPLC column
Source text: NMR data and log P values: log P (HCOOH)=log P[a] log P (neutral)=log P[b]
^[a] […] Called log P (HCOOH) in the table.
^[b] […] Called log P (neutral) in the table.

[2] = test system: Tetranychus urticae; test: Tetranychus urticae spray test, OP-resistant (TETRUR); assay type: in vivo; conditions: 500 g/ha, bean leaf discs, after 6 days
Procedure: Tetranychus urticae—spray test, OP-resistant (TETRUR)
• Solvent: 78.0 parts by weight of acetone • 1.5 parts by weight of dimethylformamide • Emulsifier: 0.5 part by weight of alkylaryl polyglycol ether
After 6 days, the efficacy in % is determined. 100% means that all the spider mites have been killed; 0% means that no spider mites have been killed.

[3] = test system: Myzus persicae; test: Myzus persicae spray test (MYZUPE); assay type: in vivo; conditions: Chinese cabbage leaf discs, after 6 days
Procedure: Myzus persicae—spray test (MYZUPE)
• Solvent: 78 parts by weight of acetone • 1.5 parts by weight of dimethylformamide • Emulsifier: 0.5 part by weight of alkylaryl polyglycol ether
After 6 days, the efficacy in % is determined. 100% means that all the aphids have been killed; 0% means that no aphids have been killed.

[4] = test system: Aphis gossypii; test: Aphis gossypii spray test; assay type: in vivo; conditions: 100 ppm, cotton plants, after 6 days
Procedure: Aphis gossypii—spray test
• Solvent: 7 parts by weight of dimethylformamide • Emulsifier: alkylaryl polyglycol ether
To produce further test concentrations, the preparation is diluted with emulsifier-containing water. If the addition of ammonium salts or/and penetrants is required, these are each added in a concentration of 1000 ppm to the formulation solution.
After 6 days, the kill in % is determined. 100% means that all the aphids have been killed; 0% means that no aphids have been killed.

[5] = acidic range, pH 2.7, 0.1% aqueous formic acid/acetonitrile
[6] = neutral range, pH 7.8, aqueous ammonium hydrogencarbonate/acetonitrile
[7] = neutral range, pH 7.8, aqueous ammonium hydrogencarbonate/acetonitrile, read-out: logP [b] = log P (neutral)
[8] = acidic range, pH 2.7, 0.1% aqueous formic acid/acetonitrile, read-out: logP [a] = log P (HCOOH)

Compound	logP [a] = log P (HCOOH) ([1]; pH 2.7)	logP [a] = log P (HCOOH) [1, 5]	also measured
Cc1ccsc1-c1cnc2cc(C(F)(F)F)ccc2n1 [Example I-48]	4.67	–	efficacy (spider mites killed) [2]: 90%
Cn1nccc1-c1cnc2cc(C(F)(F)F)ccc2n1 [Example I-49]	–	3.07	logP [b] = log P (neutral) [1, 6]: 3.05
Cn1nccc1-c1cnc2ccc(C(F)(F)F)cc2n1 [Example I-50]	–	3.02	logP [b] = log P (neutral) [1, 6]: 3.00
Cc1ccc(-c2cnc3ccc(C(F)(F)F)cc3n2)c(F)c1 [Example I-51]	4.97	–	efficacy (spider mites killed) [2]: 100%
Cc1cccnc1-c1cnc2cc(C(F)(F)F)ccc2n1 [Example I-52]	3.69	–	–
FC(F)(F)c1ccc2nc(Cl)c(-c3ccc(Cl)cc3)nc2c1 [Example I-53]	–	5.31	–
Cc1ccc(-c2c[n+]([O-])c3ccc(C(F)(F)F)cc3n2)c(F)c1 [Example I-54]	4.04	–	logP [b] = log P (neutral) ([1]; pH 7.8): 4.00
Cc1c[n+]([O-])ccc1-c1c[n+]([O-])c2cc(C(F)(F)F)ccc2n1 [Example I-55]	–	1.59	–
Cc1cnccc1-c1cnc2cc(C#N)ccc2n1 [Example I-56]	1.17	–	logP [b] = log P (neutral) ([1]; pH 7.8): 1.81
CCSc1ccccc1-c1cnc2cc(C#N)ccc2n1 [Example I-57]	3.60	–	logP [b] = log P (neutral) ([1]; pH 7.8): 3.55
FC(F)(F)c1ccc2nc(-c3ccncc3)c(-c3ccncc3)nc2c1 [Example I-58]	–	2.06	–
CCSc1ccccc1-c1nc2cc3c(cc2nc1-c1ccc(Cl)cc1)OC(F)(F)O3 [Example I-59]	–	6.23	–
Cc1nc2cc(C(F)(F)F)ccc2nc1-c1cccnc1 [Example I-60]	–	2.39	–
N#Cc1ccc2nc(-c3ccncc3)cnc2c1 [Example I-61]	–	1.19	–
COc1cnccc1-c1cnc2ccc(C(F)(F)F)cc2n1 [Example I-62]	2.60	–	efficacy (aphids killed) ([3]; 100 g/ha): 90%; efficacy (kill of aphids) [4]: 97%
Cc1cnccc1-c1cnc2cc(F)c(F)cc2n1 [Example I-63]	1.55	–	efficacy (aphids killed) ([3]; 500 g/ha): 90%
Cc1cnccc1-c1nc2ccc(C(F)(F)F)cc2nc1-c1ccc(Cl)cc1 [Example I-64]	–	4.03	–
Cc1cnccc1-c1nc2cc(F)c(F)cc2nc1C [Example I-65]	1.58	–	–
Cc1cnccc1-c1nc2ccc(C(F)(F)F)cc2nc1C [Example I-66]	–	2.15	efficacy (spider mites killed) [2]: 90%; efficacy (aphids killed) ([3]; 500 g/ha): 90%; efficacy (kill of aphids) [4]: 95%
Cc1cnccc1-c1nc2cc3c(cc2nc1C)OC(F)(F)O3 [Example I-67]	2.02	–	–
Cc1cnccc1-c1nc2cc(C(F)(F)F)ccc2nc1-c1ccc(Cl)cc1 [Example I-68]	–	3.94	–
Clc1ccc2nc(-c3ccnc(Cl)c3)cnc2c1 [Example I-69]	–	3.52	–
Fc1cc2ncc(-c3ccncc3Cl)nc2cc1F [Example I-70]	2.72	–	–
Clc1cc2ncc(-c3ccncc3Cl)nc2cc1Cl [Example I-71]	3.78	–	–
FC1(F)Oc2cc3ncc(-c4ccncc4Cl)nc3cc2O1 [Example I-72]	3.24	–	–
Clc1cc2ncc(-c3ccncc3)nc2cc1Cl [Example I-73]	–	2.53	–
O=c1cnc2cc(C(F)(F)F)ccc2[nH]1 [VIa-01, 6-(trifluoromethyl)quinoxalin-2(1H)-one]	–	–	chromatographic logP [1, 7]: 1.71
O=c1cnc2ccc(C(F)(F)F)cc2[nH]1 [VIa-02, 7-(trifluoromethyl)quinoxalin-2(1H)-one]	–	–	chromatographic logP [1, 7]: 1.65
O=c1cnc2cc3c(cc2[nH]1)OC(F)(F)O3 [VIa-03, 2,2-difluoro[1,3]dioxolo[4,5-g]quinoxalin-6(5H)-one]	–	–	chromatographic logP [1, 8]: 1.49; chromatographic logP [1, 7]: 1.33
O=c1[nH]c2cc3c(cc2nc1-c1ccc(Cl)cc1)OC(F)(F)O3 [VIb-01, 7-(4-chlorophenyl)-2,2-difluoro [1,3]dioxolo [4,5-g]quinoxalin-6(5H)-one]	–	–	chromatographic logP [1, 8]: 2.96
